# Experimental data published in patent US11208387B2, “Macrocyclic broad spectrum antibiotics” (Genentech, Inc., priority 2019, dated 2021).
# Where two headings read alike, the source gives them in different places.
# Assays:
# [1] = tested on: Klebsiella pneumoniae ATCC 700603; assay: Serum MIC, broth micro-dilution; type: cell-based; conditions: Klebsiella pneumoniae, ATCC700603; 50% v/v mouse serum in Mueller Hinton II cation adjusted Broth, 35° C., 22 hours; Table 4; read-out: K pneumoniae 700603 Serum MIC
# In short: (§1)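 CLSI broth microdilution in 50% cation-adjusted Mueller Hinton II broth plus 50% mouse serum. Inoculum at final OD600 0.0005. Two-fold serial dilutions (10 concentrations) starting at 64, 4, 0.5 or 0.13 μg/mL. Incubated 22 h at 35 °C.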
# [2] = tested on: Escherichia coli strain ATCC 25922; assay: Serum MIC, broth micro-dilution; type: cell-based; conditions: Escherichia coli, ATCC25922; 50% v/v mouse serum in Mueller Hinton II cation adjusted Broth, 35° C., 22 hours; Table 4; read-out: E. coli 25922 Serum MIC
# In short: as §1
# [3] = tested on: Acinetobacter baumannii ATCC 17978; assay: Serum MIC, broth micro-dilution; type: cell-based; conditions: Acinetobacter baumannii, ATCC17978, 50% v/v mouse serum in Mueller Hinton II cation adjusted Broth, 35° C., 22 hours
# In short: as §1
# [4] = tested on: Pseudomonas aeruginosa PA01; assay: Serum MIC, broth micro-dilution; type: cell-based; conditions: Pseudomonas aeruginosa, PA01; 50% v/v mouse serum in Mueller Hinton II cation adjusted Broth, 35° C., 22 hours; Table 4; read-out: P. aeruginosa 01 Serum MIC
# In short: as §1
# [5] = tested on: isolated liver mitochondria; assay: Mitochondrial oxygen consumption rate (OCR) assay; type: biochemical, Sprague-Dawley rats; conditions: isolated rat liver mitochondria, state 3 (S3) respiration, glutamate/malate; Table 3
# From the text: Male Sprague-Dawley rats (8-10 weeks of age) were euthanized with an overdose of carbon dioxide. The liver was rapidly excised and placed in ice-cold phosphate-buffered saline (PBS) before isolation process. Mitochondria were isolated using the MitoCheck® Mitochondrial Isolation Kit (Cayman Chemical #701010, Ann Arbor, Mich.) according to manufacturer's instructions. In brief, approximately 10-14 grams of liver tissues were finely minced using a pair of scissors, and washed repeatedly with ice-cold PBS, followed by Mito Isolation Buffer. The minced tissues were homogenized with 30 ml Mito Homogenization Buffer in 40 ml dounce homogenizer and a smooth glass grinder. The homogenate was split into two clean 30 ml polycarbonate tubes and centrifuged at 1,000×g, 4° C., for 3 minutes. The supernatant was subjected to further centrifugation at 10,000×g, 4° C., for 10 minutes. The supernatant was discarded and mitochondrial pellet was suspended in Mito Isolation Buffer using a glass stirring rod and stored on ice until use. Protein concentration of mitochondria was determined using a bicinchoninic acid protein assay kit (Thermo Scientific, Waltham, Mass.).
# Oxygen consumption was monitored as essentially described by Will et al., “Analysis of mitochondrial function using phosphorescent oxygen-sensitive probes,” Nature Protocols Vol. 1(6) (2006) 2563. Briefly, isolated mitochondria (50 μg mitochondrial proteins/state 3 (S3) of mitochondrial respiration for inhibitor identification, 100 μg/S2 for uncoupler identification) were incubated with compounds in 25 μl of Measurement Buffer (MB: 250 mM sucrose, 15 mM KCl, 1 mM EGTA, 5 mM MgCl2, 30 mM K2HPO4, pH 7.4) including 1% DMSO on ice for 1 hour, then mixed with 25 μl of substrate mixture including an oxygen-sensitive phosphorescent dye (MitoXpress Xtra, Agilent, Santa Clara, Calif.), glutamate (25 mM, G1626, Sigma, St. Louis, Mo.), malate (25 mM, M6413, Sigma), ADP (3.3 mM, A2754, Sigma, only for S3 of mitochondrial respiration), Fatty acid free BSA (0.1%, A0281, Sigma), and a complex II-specific inhibitor TTFA (2 μM, T27006, Sigma for the assessment of complex I-mitochondrial respiration with glutamate/malate) in a black wall/clear bottom 384-well plate. The mixtures were covered with HS mineral oil (Agilent) using the Viaflo 384-channel pipette (Integra, Hudson, N.H.). Oxygen consumption was measured for 30 min at 30° C. using a spectrofluorimeter (FLUOstar Omega, BMG Labtech, Cary, N.C.). In S3, DMSO vehicle control and antimycin A (10 μM) were used to define 0% and 100% inhibition. In S2, DMSO vehicle and FCCP (0.5-1 μM) was used to define 0% and 100% uncoupling, respectively. Area under curve typically in a range of 0-12 min (S3) or 0-24 min (S2) was used for calculations. IC50 or UC50 (uncoupling concentration), a concentration that causes 50% of inhibition or maximal (uncoupling) activation of oxygen consumption, was used to evaluate experimental quality. Data were presented as μM (per 50 μg (S3) or 100 μg (S2) mitochondrial proteins). Compounds with IC50: <100 μM (S3) and/or UC50: <200 μM (S2) were considered as high-risk on mitochondrial toxicity. Compounds with 25-50% changes in inhibition and/or uncoupling were categorized as medium-risk, since compounds with >25% changes are considered as responders.
# Toxicity associated with mitochondrial dysfunction has presented a problem for promising potential antibiotics as we as other types of therapeutics. The mitochondrial oxygen consumption rate (OCR) assay is considered a reliable indicator of potential internal organ toxicity issues that may occur with powerful antibiotics. The carboxylate compounds of the invention show unexpected lower toxicity than prior art “glycine nitrile” arylomycin analogs (see, e.g., WO 2018/149419) in the mitochondrial oxygen consumption rate (OCR) assay.
# [6] = Table 4, read-out: A. baumanii 17978 Serum MIC
# [7] = Table 5, read-out: Acinetobacter baumanii 17978 Serum MIC
Structure (SMILES),MIC [1],MIC [2],"MIC [3, 6]","MIC [3, 7]",MIC [4],IC50 [5]
"Cc1nc(-c2ccc(C(C)(C)C)cc2)nc(C)c1C(=O)N[C@@H](CNS(N)(=O)=O)C(=O)N(C)[C@@H]1C(=O)N[C@@H](C)C(=O)N[C@H](C(=O)O)Cc2ccc(OC[C@H](O)CN)c(c2)-c2cc1cc(OC[C@H](O)CN)c2O [Example 7, (8S,11S,14S)-18-hydroxy-11-methyl-14-[methyl-[(2S)-2-[[2-(4-tert-butyl-phenyl)-4,6-dimethyl-pyrimidine-5-carbonyl]amino]-3-(sulfamoylamino)-propanoyl]amino]-10,13-dioxo-3,17-bis[(2R)-3-amino-2-hydroxy-propoxy]-9,12-diazatricyclo-[13.3.1.12,6]icosa-1(18),2(20),3,5,15(19), 16-hexaene-8-carboxylic acid]",0.46 µM,0.42 µM,9.3 µM,9.3 µM,4.3 µM,> 250 µM
"Cc1nc(-c2ccc(C(C)(C)C)cc2O)nc(N)c1C(=O)N[C@@H](CCN)C(=O)N(C)[C@@H]1C(=O)N[C@@H](C)C(=O)N[C@H](C(=O)O)Cc2ccc(OC[C@H](O)CN)c(c2)-c2cc1cc(OC[C@H](O)CN)c2O [Example 43, (8S,11S,14S)-14-[[(2S)-4-amino-2-[[4-amino-2-(4-tert-butyl-2-hydroxy-phenyl)-6-methyl-pyrimidine-5-carbonyl]amino]-butanoyl]-methyl-amino]-3,17-bis[(2R)-3-amino-2-hydroxy-propoxy]-18-hydroxy-11-methyl-10,13-dioxo-9,12-diazatricyclo-[13.3.1.12,6]icosa-1(19),2(20),3,5,15,17-hexaene-8-carboxylic acid]",0.25 µM,0.25 µM,8 µM,8 µM,8 µM,> 100 µM
"C[C@@H]1NC(=O)[C@@H](N(C)C(=O)[C@H](CCN)NC(=O)c2c(N)nc(-c3ccc(C(C)(C)C)cc3)nc2C(F)F)c2cc(OC[C@H](O)CN)c(O)c(c2)-c2cc(ccc2OC[C@H](O)CN)C[C@@H](C(=O)O)NC1=O [Example 32, (8S,11S,14S)-18-hydroxy-11-methyl-14-[methyl-[(2S)-4-amino-2-[[2-(4-tert-butylphenyl)-4-amino-6-difluoro-methyl-pyrimidine-5-carbonyl]amino]-butanoyl]amino]-10,13-dioxo-3,17-bis[(2R)-3-amino-2-hydroxy-propoxy]-9,12-diazatricyclo-[13.3.1.12,6]icosa-1(18),2(20),3,5,15(19), 16-hexaene-8-carboxylic acid]",0.25 µM,0.25 µM,4 µM,4 µM,16 µM,> 100 µM

# The remaining lines, values ahead:
MIC [1],MIC [2],"MIC [3, 6]","MIC [3, 7]",MIC [4],IC50 [5],Structure (SMILES)
0.5 µM,0.5 µM,11 µM,11 µM,3.3 µM,261 µM,"Cc1nc(-c2ccc(C(C)(C)C)cc2)nc(N)c1C(=O)N[C@@H](CNS(N)(=O)=O)C(=O)N(C)[C@@H]1C(=O)N[C@@H](C)C(=O)N[C@H](C(=O)O)Cc2ccc(OC[C@H](O)CN)c(c2)-c2cc1cc(OC[C@H](O)CN)c2O [Example 2, (8S,11S,14S)-18-hydroxy-11-methyl-14-[methyl-[(2S)-2-[[4-amino-2-(4-tert-butylphenyl)-6-methyl-pyrimidine-5-carbonyl]amino]-3-(sulfamoylamino)-propanoyl]amino]-10,13-dioxo-3,17-bis[(2R)-3-amino-2-hydroxy-propoxy]-9,12-diazatricyclo-[13.3.1.12,6]icosa-1(18),2(20),3,5,15(19), 16-hexaene-8-carboxylic acid]"
0.5 µM,0.5 µM,8 µM,8 µM,4 µM,44 µM,"Cc1nc(-c2ccc(C(C)(C)C)cc2O)nc(N)c1C(=O)N[C@@H](CNS(N)(=O)=O)C(=O)N(C)[C@@H]1C(=O)N[C@@H](C)C(=O)N[C@H](C(=O)O)Cc2ccc(OC[C@H](O)CN)c(c2)-c2cc1cc(OC[C@H](O)CN)c2O [Example 44, (8S,11S,14S)-14-[[(2S)-2-[[4-amino-2-(4-tert-butyl-2-hydroxy-phenyl)-6-methyl-pyrimidine-5-carbonyl]amino]-3-(sulfamoylamino)-propanoyl]-methyl-amino]-3,17-bis[(2R)-3-amino-2-hydroxy-propoxy]-18-hydroxy-11-methyl-10,13-dioxo-9,12-diazatricyclo-[13.3.1.12,6]icosa-1(18),2(20),3,5,15(19), 16-hexaene-8-carboxylic acid]"
1 µM,1 µM,16 µM,16 µM,6 µM,> 100 µM,"Cc1nc(-c2ccc(C(C)(C)C)cc2F)nc(N)c1C(=O)N[C@@H](CNS(N)(=O)=O)C(=O)N(C)[C@@H]1C(=O)N[C@@H](C)C(=O)N[C@H](C(=O)O)Cc2ccc(OC[C@H](O)CN)c(c2)-c2cc1cc(OC[C@H](O)CN)c2O [Example 62, (8S,11S,14S)-14-[[(2S)-2-[[4-amino-2-(4-tert-butyl-2-fluoro-phenyl)-6-methyl-pyrimidine-5-carbonyl]-amino]-3-(sulfamoyl-amino)propanoyl]-methyl-amino]-3,17-bis[(2R)-3-amino-2-hydroxy-propoxy]-18-hydroxy-11-methyl-10,13-dioxo-9,12-diazatricyclo-[13.3.1.12,6]icosa-1(18),2(20),3,5,15(19), 16-hexaene-8-carboxylic acid]"
0.75 µM,0.75 µM,8 µM,8 µM,4 µM,> 100 µM,"Cc1nc(-c2ccc(C(C)(C)C)cc2)nc(N)c1C(=O)N[C@@H](CNS(N)(=O)=O)C(=O)N(C)[C@@H]1C(=O)N[C@@H](C)C(=O)N[C@H](C(=O)O)Cc2ccc(OC[C@H](O)CN)c(c2)-c2cc1cc(OC[C@@H](O)CN)c2O [Example 50, (8S,11S,14S)-14-[[(2S)-2-[[4-amino-2-(4-tert-butylphenyl)-6-methyl-pyrimidine-5-carbonyl]amino]-3-(sulfamoylamino)-propanoyl]-methyl-amino]-3-[(2R)-3-amino-2-hydroxy-propoxy]-17-[(2S)-3-amino-2-hydroxy-propoxy]-18-hydroxy-11-methyl-10,13-dioxo-9,12-diazatri-cyclo[13.3.1.12,6]icosa-1(19),2(20),3,5,15,17-hexaene-8-carboxylic acid]"
